Data published in article PMC4840416, “Constructing and Validating High-Performance MIEC-SVM Models in Virtual Screening for Kinases: A Better Way for Actives Discovery” (Scientific Reports, 2016).

Molecular target: T1, recombinant human ALK protein (Homo sapiens, UniProt Q9UM73)
T1 construct: purchased Life Technologies Inc. PV3867
Assay: LanthaScreen TR-FRET in vitro inhibitory activity assay of ALK
Assay type: biochemical
Settings: TR-FRET, 5 μM ATP, 1 hour at room temperature
Method: All reagents and anhydrous solvents were obtained from commercial sources and used as received. The positive control inhibitors of ALK, crizotinib and ceritinib, were purchased from Bangshunda Technology and Selleck Chemicals, respectively. The compounds were dissolved in 100% dimethyl sulfoxide (DMSO) as a 10 mM stock solution. The final DMSO concentration in each reaction was less than 1%. Purified recombinant human ALK protein (Catalog number: PV3867) as well as reagents for TR-FRET assay, including Lantha Screen™ Tb-PY20 (Catalog number: PV3552), Fluorescein-Poly GT (Catalog number: PV3610), ATP (Catalog number: PV3227), Kinase Quench Buffer (Catalog number: P2832), Kinase Buffer (Catalog number: PV3189), and Antibody Dilution Buffer (Catalog number: PV3574), were all obtained from Life Technologies Inc.
Lantha Screen™ kinase assay based on TR-FRET technology was used to measure the inhibitory activity of the screened compounds. All the assays were carried out in 384-well plate format. The 4 × test compounds were firstly prepared before the enzyme reaction starts. The 4 × recombinant human ALK protein and 2 × Substrate/ATP mixture were separately prepared in 50 mM HEPES (pH = 7.5), 0.01% BRIJ-35, 10 mM MgCl2, 4 mM MnCl2, 1 mM EGTA, and 2 mM DTT. The final 10 μL kinase reaction consists of 5 μL 1 × Substrate/ATP mixture (0.2 μM substrate and 5 μM ATP), 2.5 μL ALK (5 ng/ml ALK protein), and 2.5 μL 1 × test compounds with desired concentration. The assay plate was shook on a plate shaker for 30 seconds to mix the reactions thoroughly. After 1 hour kinase reaction incubation at room temperature (20 ~ 25 °C), 10 μL of pre-prepared 20 mM EDTA and 4 nM Tb-labeled antibody solution was then added to terminate the kinase reactions and to initiate antibody binding, and the assay plate was incubated for another 1 hour at room temperature. Then, the assay plate was placed into a fluorescence plate reader (BioTek Synergy™ 4) to measure both fluoresce in and terbium emission signals (excitation: 340 nm; emission: 520 and 495 nm, respectively) with 100 μs delay time and 200 μs integration time. To determine the IC50 values, the resulted inhibitory activity calculated from TR-FRET emission ratio (i.e. fluoresce in emission intensity/terbium emission intensity) was plotted against the concentration of inhibitor, and the data was fitted to a dose-response curve with a variable slop.

T1 sequence (Q9UM73 1058-1620 limits assumed): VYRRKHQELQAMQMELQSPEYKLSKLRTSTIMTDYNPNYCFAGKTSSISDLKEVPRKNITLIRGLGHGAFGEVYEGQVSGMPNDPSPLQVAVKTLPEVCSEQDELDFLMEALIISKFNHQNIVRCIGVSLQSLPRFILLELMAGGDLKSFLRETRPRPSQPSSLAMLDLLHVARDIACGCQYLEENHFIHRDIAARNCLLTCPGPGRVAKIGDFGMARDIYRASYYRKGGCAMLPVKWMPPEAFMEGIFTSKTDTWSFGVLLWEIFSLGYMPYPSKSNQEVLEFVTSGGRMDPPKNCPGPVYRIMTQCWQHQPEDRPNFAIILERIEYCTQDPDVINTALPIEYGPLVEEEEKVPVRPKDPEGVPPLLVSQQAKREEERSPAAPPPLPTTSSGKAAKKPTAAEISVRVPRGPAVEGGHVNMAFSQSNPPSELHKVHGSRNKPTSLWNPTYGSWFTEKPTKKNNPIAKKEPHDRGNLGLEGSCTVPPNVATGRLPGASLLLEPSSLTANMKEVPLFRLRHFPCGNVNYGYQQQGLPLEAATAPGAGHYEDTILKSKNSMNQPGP

SMILES | IC50
Cc1ccc(C)c(N2CCN(C3CC(=O)N(c4ccc(N5C(=O)CC(N6CCN(c7cc(C)ccc7C)CC6)C5=O)cc4)C3=O)CC2)c1 (stereo not shown) [Compound A3] | 1540 nM
COc1cc(/C=C2/C(=N)N3N=C(c4ccccc4Cl)SC3=NC2=O)ccc1O [Compound M4] | 863 nM

Same assay, conditions: compound at 2ug/ml

SMILES | Averaged Enzymatic Inhibition @ 2ug/ml (%)
Cc1ccc(S(=O)(=O)N(Cc2n[nH]c(=S)n2-c2ccccc2)c2cccc(Cl)c2)cc1 [AG-690/40751357] | 8.965%
COc1ccc(-c2cc(C(=O)Nc3ccccc3-c3ccccc3)c3ccccc3n2)cc1 [AG-690/40749597] | 2.49%
Cc1cc(C)c2oc(-c3ccc(C)c(NC(=O)C(c4ccccc4)c4ccccc4)c3)nc2c1 [AN-465/13859038] | 40.815%
CC(C)(C)c1ccc(Oc2cc(Nc3ccccc3)c3c4c(onc24)-c2ccccc2C3=O)cc1 [AG-690/40097127] | 11.435%
CCC1CCc2c(sc(NC(=O)c3c(-c4c(Cl)cccc4Cl)noc3C)c2C(N)=O)C1 (stereo not shown) [AK-968/12265292] | -4.47%
Cc1ccc(C(=O)CC2(O)C(=O)N(CCc3ccccc3)c3ccccc32)cc1 (stereo not shown) [AK-778/40897568] | 18.54%
O=C(CC1(O)C(=O)N(CCc2ccccc2)c2ccccc21)c1ccc2c(c1)OCCO2 (stereo not shown) [AK-778/41314821] | -1.935%
COc1ccc(-n2c(-c3ccc(-c4ccccc4)cc3)nnc2-c2cccc3ccccc23)cc1 [AE-848/32007021] | 5.085%
Cc1ccc(-c2csc(N3N=C(c4ccc5c(c4)CCCC5)CC3c3ccccc3)n2)cc1 (stereo not shown) [AL-182/40744490] | -4.165%
OC(CNCCc1ccccc1)Cn1c(-c2ccccc2)c(-c2ccccc2)c2ccc3ccccc3c21 (stereo not shown) [AF-399/15128092] | -33.405%
C/C(=N\Nc1nc(-c2ccc(F)cc2)cs1)c1nonc1C [AN-648/40740338] | 23.375%
Cc1ccccc1-c1nnc(-c2ccc(-c3ccccc3)cc2)n1-c1ccccc1 [AG-690/33068064] | 4.62%
CCOc1cc(/C=C2/SC(=O)N(Cc3c(F)cccc3Cl)C2=O)ccc1O [AM-879/41780072] | 12.385%
Cc1ccc(-c2ccc(/C=C3/SC(N4CCN(c5cccc(C)c5)CC4)=NC3=O)o2)cc1 [AF-399/40881300] | 13.735%
O=C1c2ccccc2-c2c1c(-c1cccc(Oc3ccccc3)c1)nc1ccc3ccccc3c21 [AG-690/12869023] | 12.235%

Same assay, conditions: compound at 2ug/ml, read-out: Averaged Enzymatic Inhibition @ 2ug/ml (%)

SMILES | inhibition at 2 µg/mL
Cc1ccc(C)c(N2CCN(C3CC(=O)N(c4ccc(N5C(=O)CC(N6CCN(c7cc(C)ccc7C)CC6)C5=O)cc4)C3=O)CC2)c1 (stereo not shown) [Compound A3] | 65.8%
COc1cc(/C=C2/C(=N)N3N=C(c4ccccc4Cl)SC3=NC2=O)ccc1O [Compound M4] | 70.5%
